Data: US20010039255A1, “Use of alpha1A adrenoceptor agonists with alpha1B and alpha1D antagonism for the treatment of stress urinary incontinence” (priority 2000, published 2001)
Read-outs that look alike come from different tables or passages of the source.

How the values were obtained:
[1] = molecular target: T1, α1b (hamster receptor expressed in mouse fibroblasts) (Mesocricetus auratus, UniProt P18841); experiment: Radioligand binding with [3H]-prazosin, α1b (hamster receptor expressed in mouse fibroblasts)
T1 construct: expressed in transfected cells; host or cells: mouse fibroblasts
T1 sequence (P18841 1-515): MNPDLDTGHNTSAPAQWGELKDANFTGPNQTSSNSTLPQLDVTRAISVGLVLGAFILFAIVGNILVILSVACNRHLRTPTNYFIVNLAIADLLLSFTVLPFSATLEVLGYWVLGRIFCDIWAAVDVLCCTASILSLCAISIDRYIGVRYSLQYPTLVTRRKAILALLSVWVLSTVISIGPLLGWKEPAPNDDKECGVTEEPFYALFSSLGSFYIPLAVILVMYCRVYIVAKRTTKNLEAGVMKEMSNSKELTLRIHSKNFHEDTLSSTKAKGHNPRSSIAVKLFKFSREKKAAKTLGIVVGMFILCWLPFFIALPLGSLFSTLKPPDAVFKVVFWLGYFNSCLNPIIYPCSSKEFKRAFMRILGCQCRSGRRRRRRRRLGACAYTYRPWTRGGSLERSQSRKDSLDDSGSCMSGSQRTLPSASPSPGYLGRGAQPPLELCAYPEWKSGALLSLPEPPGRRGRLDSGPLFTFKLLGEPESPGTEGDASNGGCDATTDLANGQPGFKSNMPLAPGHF
From the text: Radioligand Binding Ki (nM)
Exp. Ther. (1995), 274, 97-103.

[2] = molecular target: T2, α1D adrenoceptor (rat aorta) (Rattus norvegicus, UniProt P23944); settings: for α1D r: Schild plot regression correlation; for α1D slope: Schild plot slope; for type of antagonism at α1D: based on slope and regression (r) of Schild plot; for α1D efficacy: percent of phenylephrine (100%) contraction
T2 sequence (P23944 1-561): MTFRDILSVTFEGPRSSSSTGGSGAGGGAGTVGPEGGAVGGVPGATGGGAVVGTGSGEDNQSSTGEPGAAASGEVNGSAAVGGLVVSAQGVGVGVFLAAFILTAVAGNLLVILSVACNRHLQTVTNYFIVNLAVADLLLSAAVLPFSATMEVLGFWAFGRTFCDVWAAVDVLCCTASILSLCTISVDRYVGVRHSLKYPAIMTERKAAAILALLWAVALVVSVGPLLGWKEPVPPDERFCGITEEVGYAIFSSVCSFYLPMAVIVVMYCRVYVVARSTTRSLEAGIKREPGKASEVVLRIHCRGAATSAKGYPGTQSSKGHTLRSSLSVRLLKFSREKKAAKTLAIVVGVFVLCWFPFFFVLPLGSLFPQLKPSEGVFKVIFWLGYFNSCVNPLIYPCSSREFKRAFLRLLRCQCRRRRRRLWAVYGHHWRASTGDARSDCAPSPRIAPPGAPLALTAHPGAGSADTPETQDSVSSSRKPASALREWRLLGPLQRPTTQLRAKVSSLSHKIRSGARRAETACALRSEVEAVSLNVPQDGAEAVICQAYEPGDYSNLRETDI

[3] = molecular target: T3, α1d (rat receptor expressed in mouse fibroblasts) (Rattus norvegicus, UniProt P23944); experiment: Radioligand binding with [3H]-prazosin, α1d (rat receptor expressed in mouse fibroblasts)
T3 construct: expressed in transfected cells; host or cells: mouse fibroblasts
T3 sequence (P23944 1-561): T2 sequence (P23944 1-561)

[4] = molecular target: T4, α1A (rat submaxillary gland) (Rattus norvegicus, UniProt P43140); experiment: Radioligand binding with [3H]-prazosin, α1A (rat submaxillary gland)
T4 construct: from tissue; host or cells: rat submaxillary gland
T4 sequence (P43140 1-466): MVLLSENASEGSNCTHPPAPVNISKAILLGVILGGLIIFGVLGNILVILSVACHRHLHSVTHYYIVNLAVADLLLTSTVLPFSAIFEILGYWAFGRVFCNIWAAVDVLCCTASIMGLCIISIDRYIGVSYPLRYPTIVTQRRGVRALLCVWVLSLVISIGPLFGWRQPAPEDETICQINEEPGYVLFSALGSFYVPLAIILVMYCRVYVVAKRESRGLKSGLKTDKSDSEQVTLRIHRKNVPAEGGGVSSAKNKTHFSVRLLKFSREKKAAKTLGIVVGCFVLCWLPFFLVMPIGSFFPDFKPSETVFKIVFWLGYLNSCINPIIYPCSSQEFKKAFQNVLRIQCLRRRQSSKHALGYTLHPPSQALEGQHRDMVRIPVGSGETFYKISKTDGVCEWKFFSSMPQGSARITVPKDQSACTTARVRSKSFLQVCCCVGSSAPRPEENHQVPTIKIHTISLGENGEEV

[5] = molecular target: T5, α1B adrenoceptor (rat spleen) (Rattus norvegicus, UniProt P15823); settings: for α1B r: Schild plot regression correlation; for α1B slope: Schild plot slope; for type of antagonism at α1B: based on slope and regression (r) of Schild plot
T5 sequence (P15823 1-515): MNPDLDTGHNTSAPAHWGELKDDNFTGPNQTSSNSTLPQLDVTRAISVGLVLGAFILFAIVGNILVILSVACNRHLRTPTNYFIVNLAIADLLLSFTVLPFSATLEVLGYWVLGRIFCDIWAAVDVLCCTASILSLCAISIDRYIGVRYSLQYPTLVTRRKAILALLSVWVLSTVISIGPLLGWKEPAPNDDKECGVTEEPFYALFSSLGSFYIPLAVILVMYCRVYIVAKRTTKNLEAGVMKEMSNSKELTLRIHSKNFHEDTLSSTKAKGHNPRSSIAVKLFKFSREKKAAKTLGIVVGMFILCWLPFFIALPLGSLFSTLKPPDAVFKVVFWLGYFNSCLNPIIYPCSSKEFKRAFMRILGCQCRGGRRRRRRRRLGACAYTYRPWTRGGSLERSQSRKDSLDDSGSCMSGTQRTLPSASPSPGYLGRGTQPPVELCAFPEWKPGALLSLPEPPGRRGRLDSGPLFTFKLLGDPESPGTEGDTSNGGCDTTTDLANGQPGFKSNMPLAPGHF
From the text: A cumulative concentration protocol was employed.

Female Beagle dogs = settings: for IUP ED5mmHg: dose producing 5 mmHg increase in intraurethral pressure; for effect on intraurethral pressure and mean arterial pressure: increasing i.v. doses, dogs, FIGS. 1-4
From the text: Female Beagle dogs (Marshall Farms, North Rose, N.Y.) greater that 2 years of age and weighing between 12 and 15 kg were used in these studies. At least 2 weeks prior to any agonist dosing, dogs were instrumented for the chronic measurement of arterial blood pressure by implanting a telemetry transducer/transmitter (TA11PA-C40, Data Sciences International, St. Paul, Minn.) into a carotid artery.
On the test day, dogs fasted since the previous afternoon were pre-anesthetized with thiopental sodium 15 mg/kg i.v. (Pentothal™, Abbott) and intubated. Anesthesia was maintained by allowing the dog to spontaneously breathe a mixture of isoflurane (2.5 to 3 volume %) and oxygen delivered by a Narkomed Standard anesthesia system (North American Drager, Telford, Pa.). An Abbocath-T™ i.v. catheter (18-G, Abbott Laboratories, Abbott Park, Ill.) was inserted into the cephalic vein for the administration of agonists. A telemetry receiver (RA1310, DataSciences) was placed under the head of each dog and was interfaced to a computerized data acquisition system (Modular Instruments Inc.(MI2), Malvern, Pa.) which allowed for the continuous calibrated recording of arterial blood pressure which was electronically filtered to determine its mean value (MAP).
Intraurethral pressure was monitored using a balloon catheter technique previously described (Brune et al., Drug Development Research 34:267-275,1995). Briefly, a 7 Fr catheter balloon catheter (41224-01, Abbott) was inserted into the urethral orifice and advanced approximately 15 cm until the tip was well inside the bladder. The balloon was then inflated with 1 ml of room air and the catheter slowly withdrawn until resistance (corresponding to the bladder neck) was evident. The balloon was then deflated and the catheter withdrawn an additional 2 cm. The balloon was then reinflated and its catheter port connected to a Gould Statham P23Dd pressure transducer interfaced to a computerized data acquisition system (Modular Instruments, Inc., Malvern, Pa.) for the measurement of intraurethral pressure (IUP). The MAP and IUP pressor responses to increasing iv doses of test agonists were obtained simultaneously. The pressor effects of each dose were allowed to return to baseline before the next dose was given.
The dose required to elicit significant and clinically meaningful changes in IUP (5 mm Hg) relative to the dose required to elicit a physiologically significant increase in blood pressure (20 mm Hg) is calculated.
IUP and MAP pressor effects of each agonist dose were expressed as the maximum net change in each pressure over pre-dose baseline levels. Subsequently, the effective doses required to produce a 5 mmHg increase in IUP (IUP ED5mmHg) and a 20 mmHg increase in MAP (MAP ED20mmHg) were estimated from the dose response data from each dog. Relative urethral versus vascular selectivity of each agonist in each dog was estimated using a ratio of these respective potency indices (MAP ED20mmHg/IUP ED5mmHg).

[6] = molecular target: T6, α1A adrenoceptor (rabbit urethra) (Oryctolagus cuniculus, UniProt O02824); experiment: Rabbit urethra α1A subtype tissue bath; assay type: cell-based
T6 sequence (O02824 1-466): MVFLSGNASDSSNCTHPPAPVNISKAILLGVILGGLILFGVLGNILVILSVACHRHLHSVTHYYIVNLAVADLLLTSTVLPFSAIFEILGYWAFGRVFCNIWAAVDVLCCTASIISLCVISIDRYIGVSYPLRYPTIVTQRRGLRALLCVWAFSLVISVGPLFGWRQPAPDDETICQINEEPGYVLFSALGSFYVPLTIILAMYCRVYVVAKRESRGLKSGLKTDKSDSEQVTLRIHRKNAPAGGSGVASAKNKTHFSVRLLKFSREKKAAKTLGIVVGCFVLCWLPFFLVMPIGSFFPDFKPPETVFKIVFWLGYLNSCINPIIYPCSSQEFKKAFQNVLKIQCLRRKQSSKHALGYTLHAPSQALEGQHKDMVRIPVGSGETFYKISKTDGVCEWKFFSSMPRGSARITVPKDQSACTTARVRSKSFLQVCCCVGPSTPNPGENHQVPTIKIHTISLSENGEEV
From the text: Rabbit Urethra α1A Subtype
A cumulative concentration protocol was employed. […] Br. J. Pharmacol. 14, 48-58.

[7] = molecular target: T2, α1D adrenoceptor (rat aorta); experiment: cell-based
[8] = i.v., anesthetized dogs, mean ± S.E.M
[9] = i.v., anesthetized dogs, dose producing 20 mmHg increase in mean arterial pressure, mean ± S.E.M

CCS(=O)(=O)Nc1cccc(Cc2c[nH]cn2)c1 [Compound A-286666]
Ki [1]: 913 ± 135 nM | α1D r ([2]; rat aorta): 0.9 | α1D slope ([2]; rat aorta): 0.93 | type of antagonism at α1D [2]: competitive antagonist | Ki [3]: 287 ± 41 nM | Ki [4]: 137 ± 15 nM | α1B r ([5]; rat spleen): 0.9 | α1B slope ([5]; rat spleen): 0.81 | type of antagonism at α1B [5]: competitive antagonist

CCS(=O)(=O)Nc1cccc(Cc2c[nH]cn2)c1C [Compound A-286569]
IUP ED5mmHg (Female Beagle dogs; [8]): 41.9 ± 6.2 nmol/kg | MAP ED20mmHg (Female Beagle dogs; [9]): 201.6 ± 67 nmol/kg | effect on intraurethral pressure and mean arterial pressure (Female Beagle dogs): dose-dependent increases | Ki [1]: > 10000 nM | α1D r ([2]; rat aorta): 0.5 | α1D slope ([2]; rat aorta): 1.1 | type of antagonism at α1D [2]: non-competitive antagonist | Ki [3]: 840 ± 78 nM | Ki [4]: 150 ± 32 nM | α1B r ([5]; rat spleen): 0.6 | α1B slope ([5]; rat spleen): 1.3 | type of antagonism at α1B [5]: non-competitive antagonist

CC(N)C(O)c1ccccc1 (centres unmarked) [PPA, phenylpropanolamine, reference compound]
Selectivity ratio MAP ED20/IUP ED5 (Female Beagle dogs; calculated for each dog and then averaged): 0.4 | IUP ED5mmHg (Female Beagle dogs; [8]): 1092 ± 384 nmol/kg | MAP ED20mmHg (Female Beagle dogs; [9]): 331 ± 80 nmol/kg | effect on intraurethral pressure and mean arterial pressure (Female Beagle dogs): dose-dependent increases | α1b binding (in words) ([1]; hamster receptor expressed in mouse fibroblasts, [3H]-prazosin): weak adrenergic ligand | α1D efficacy ([2]; rat aorta): 91% | α1D agonist activity (in words; merged pD2/efficacy cell) ([2]; rat aorta): weak agonist | α1A agonist activity (in words) [6]: weak agonist | α1A efficacy ([6]; percent of phenylephrine (100%) contraction): 68% | α1d binding (in words) ([3]; rat receptor expressed in mouse fibroblasts, [3H]-prazosin): weak adrenergic ligand | Radioligand Binding Ki α1A (Rat) ([4]; rat submaxillary gland, [3H]-prazosin): weak adrenergic ligand | α1B efficacy ([5]; percent of phenylephrine (100%) contraction, rat spleen): 34% | α1B agonist activity (in words; merged pD2/efficacy cell) ([5]; rat spleen): weak agonist

CS(=O)(=O)Nc1c(O)ccc2c1CCCC2C1=NCCN1 (centres unmarked) [Compound A-61603, reference compound]
EC50 [7]: 2510 nM | MAP ED20mmHg (Female Beagle dogs; female, Beagle, dog, in vivo, iv): 0.27 ± 0.05 nmol/kg | IUP ED5mmHg (Female Beagle dogs; [8]): 0.16 ± 0.02 nmol/kg | effect on intraurethral pressure and mean arterial pressure (Female Beagle dogs): dose-dependent increases | Ki ([1]; hamster receptor expressed in mouse fibroblasts, [3H]-prazosin, read-out: Radioligand Binding Ki α1b (Hamster)): 1210 nM | α1D efficacy ([2]; rat aorta): 100% | Ki [3]: 1560 ± 169 nM
